Experimental data from patent US20240287022A1 (Merck Sharp & Dohme LLC, priority 2021, published 2024).

Target: recombinant IL4I1 (Homo sapiens (Human), UniProt Q96RQ9)
Assay: IL4I1 Enzymatic Assay (Amplex Red/HRP coupled H2O2 detection)
Assay type: biochemical
Conditions: 1 nM IL4I1, 1 mM each Phe/Tyr/Trp, four-hour pre-incubation, 120 minutes reaction, top compound concentration of 10000 nM
Procedure, shortened: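 Recombinant IL4I1 (1 nM final) was pre-incubated 4 h at ambient temperature with compound in 50 mM Hepes pH 7.0, 0.005% Tween20. Reaction ran 120 min with 1 mM each Phe/Tyr/Trp, 0.05 mM Amplex Red and 1 U/mL HRP. Resorufin fluorescence (544/590 nm) was read, and EC50 fitted from ten-point 1:3 titrations (top 10000 nM) by four-parameter regression.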

recombinant IL4I1, sequence (Q96RQ9 22-567): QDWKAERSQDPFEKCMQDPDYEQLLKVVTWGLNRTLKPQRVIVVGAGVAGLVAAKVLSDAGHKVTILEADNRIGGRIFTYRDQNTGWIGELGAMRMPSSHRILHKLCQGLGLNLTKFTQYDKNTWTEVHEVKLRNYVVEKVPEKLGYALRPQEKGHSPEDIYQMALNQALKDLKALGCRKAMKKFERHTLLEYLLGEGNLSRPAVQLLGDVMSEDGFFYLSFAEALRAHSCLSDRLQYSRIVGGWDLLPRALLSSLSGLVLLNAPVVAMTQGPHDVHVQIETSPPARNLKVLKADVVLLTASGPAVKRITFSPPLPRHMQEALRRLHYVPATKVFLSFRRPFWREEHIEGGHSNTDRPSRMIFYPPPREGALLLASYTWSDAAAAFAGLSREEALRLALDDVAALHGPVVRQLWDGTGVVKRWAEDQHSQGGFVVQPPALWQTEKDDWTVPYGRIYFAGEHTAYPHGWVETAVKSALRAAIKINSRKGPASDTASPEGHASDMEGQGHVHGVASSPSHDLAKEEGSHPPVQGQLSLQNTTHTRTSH

Work on `CN1C(=O)COc2ccc(Cc3cc4ccccc4[nH]c3=O)cc21` [Example 169, 4-Methyl-6-((2-oxo-1,2-dihydroquinolin-3-yl)methyl)-2H-benzo[b][1,4]oxazin-3(4H)-one] yielded an EC50 of 2.3 nM.

Work on `O=c1[nH]c2ccccc2cc1Cc1cnc(-c2ccc(F)cc2)o1` [Example 138, 3-((2-(4-fluorophenyl)oxazol-5-yl)methyl)quinolin-2(1H)-one] yielded an EC50 of 36.9 nM.

`Cc1n[nH]c(-c2nnc(Cc3cc4ccccc4[nH]c3=O)o2)c1C` [Example 44, 3-((5-(3,4-dimethyl-1H-pyrazol-5-yl)-1,3,4-oxadiazol-2-yl)methyl)quinolin-2(1H)-one] gave an EC50 of 7.7 nM.

For `CC(=O)NCc1ccc(Cc2cc3ccccc3[nH]c2=O)cc1F` [Example 166, N-(2-fluoro-4-((2-oxo-1,2-dihydroquinolin-3-yl)methyl)benzyl)acetamide], the EC50 was 2.7 nM.

For `CCn1cc(Cc2cc3ccccc3[nH]c2=O)cn1` [Example 112, 3-((1-ethyl-1H-pyrazol-4-yl)methyl)quinolin-2(1H)-one], the EC50 was 60.5 nM.

With `Cc1nnc(Cc2cc3ccccc3[nH]c2=O)o1` [Example 20, 3-((5-methyl-1,3,4-oxadiazol-2-yl)methyl)quinolin-2(1H)-one] the EC50 was 624 nM.

Work on `O=c1[nH]c2ccccc2cc1Cc1nnc(-c2cc3c(s2)CCC3)o1` [Example 39, 3-((5-(5,6-dihydro-4H-cyclopenta[b]thiophen-2-yl)-1,3,4-oxadiazol-2-yl)methyl)quinolin-2(1H)-one] yielded an EC50 of 10.2 nM.

Work on `CC1(N)CN(c2ccc(Cc3cc4ccccc4[nH]c3=O)cc2)C1` [compound 60, 3-(4-(3-amino-3-methylazetidin-1-yl)benzyl)quinolin-2(1H)-one] yielded an EC50 of 19.9 nM.

For `O=C1OCCN1c1ccc(Cc2cc3cnccc3[nH]c2=O)cc1` [Example 61, 3-(4-((2-oxo-1,2-dihydro-1,6-naphthyridin-3-yl)methyl)phenyl)oxazolidin-2-one], the EC50 was 2.7 nM.

Work on `CC(=O)NCc1ccc(Cc2cc3ccccc3n(C)c2=O)cc1` [Example 151, N-(4-((1-Methyl-2-oxo-1,2-dihydroquinolin-3-yl)methyl)benzyl)acetamide] yielded an EC50 of 3.3 nM.

For `O=c1[nH]c2ccccc2cc1Cc1nnc(-c2cnsc2)o1` [Example 30, 3-((5-(isothiazol-4-yl)-1,3,4-oxadiazol-2-yl)methyl)quinolin-2(1H)-one], the EC50 was 696 nM.

`CC(C)(O)c1ccc(Cc2cc3ccccc3[nH]c2=O)cc1` [Example 160, 3-(4-(2-Hydroxypropan-2-yl)benzyl)quinolin-2(1H)-one] was tested, and the EC50 was 6.3 nM.

For `O=C1CC(Cc2nnc(Cc3cc4ccccc4[nH]c3=O)o2)CC(=O)N1` [Example 37, 4-((5-((2-oxo-1,2-dihydroquinolin-3-yl)methyl)-1,3,4-oxadiazol-2-yl)methyl)piperidine-2,6-dione], the EC50 was 138 nM.

In the case of `O=C1COc2c(Cl)cc(Cc3cc4ccccc4[nH]c3=O)cc2N1` [Example 170, 8-Chloro-6-((2-oxo-1,2-dihydroquinolin-3-yl)methyl)-2H-benzo[b][1,4]oxazin-3(4H)-one], the EC50 is reported as 1 nM.

`CC1(O)CC(c2ccc(Cc3cc4ccccc4[nH]c3=O)cc2)C1` (stereo not drawn) [Example 161, 3-(4-(3-hydroxy-3-methylcyclobutyl)benzyl)quinolin-2(1H)-one] showed an EC50 of 3.2 nM.

With `N#CC1(c2ccc(Cc3cc4ccccc4[nH]c3=O)cc2)CC1` [Example 98, 1-(4-((2-oxo-1,2-dihydroquinolin-3-yl)methyl)phenyl)cyclopropane-1-carbonitrile] the EC50 was 1 nM.

Compound `Cc1cnc(-c2nnc(Cc3cc4ccccc4[nH]c3=O)o2)s1` [Example 22, 3-((5-(5-methylthiazol-2-yl)-1,3,4-oxadiazol-2-yl)methyl)quinolin-2(1H)-one] has an EC50 of 203 nM.

Compound `O=c1[nH]c2ccccc2cc1Cc1ccc(OC2CCOCC2)nc1` [Example 85, 3-((6-((tetrahydro-2H-pyran-4-yl)oxy)pyridin-3-yl)methyl)quinolin-2(1H)-one] has an EC50 of 8.7 nM.

`CC1(O)CN(c2ccc(Cc3cc4ccccc4[nH]c3=O)cn2)C(=O)O1` (racemic) [Example 51, rac-5-hydroxy-5-methyl-3-(5-((2-oxo-1,2-dihydroquinolin-3-yl)methyl)pyridin-2-yl)oxazolidin-2-one] was tested, and the EC50 was 29.1 nM.

`O=c1[nH]c2ccccc2cc1Cc1cnn(CC2(C(F)F)CC2)c1` [Example 111, 3-((1-((1-(difluoromethyl)cyclopropyl)methyl)-1H-pyrazol-4-yl)methyl)quinolin-2(1H)-one] gave an EC50 of 24.6 nM.

For `O=C1CCC(c2ccc(Cc3cc4ccccc4[nH]c3=O)cc2Cl)N1` (stereo not drawn) [Example 181, 3-(3-chloro-4-(5-oxopyrrolidin-2-yl)benzyl)quinolin-2(1H)-one], the EC50 was 2.5 nM.

`O=c1[nH]c2ccccc2cc1Cc1cc(-c2ccccc2)no1` [Example 140, 3-((3-phenylisoxazol-5-yl)methyl)quinolin-2(1H)-one] gave an EC50 of 23.4 nM.

`Cc1onc(-c2nnc(Cc3cc4ccccc4[nH]c3=O)o2)c1C` [Example 14, 3-((5-(4,5-dimethylisoxazol-3-yl)-1,3,4-oxadiazol-2-yl)methyl)quinolin-2(1H)-one] gave an EC50 of 150 nM.

Work on `CC1(CO)CN(c2ccc(Cc3cc4ccccc4[nH]c3=O)cn2)C(=O)O1` (racemic) [Example 50, rac-5-(hydroxymethyl)-5-methyl-3-(5-((2-oxo-1,2-dihydroquinolin-3-yl)methyl)pyridin-2-yl)oxazolidin-2-one] yielded an EC50 of 18.9 nM.

`O=c1[nH]c2ccccc2cc1Cc1nnc(-c2ncn3ccccc23)o1` [Example 16, 3-((5-(imidazo[1,5-a]pyridin-1-yl)-1,3,4-oxadiazol-2-yl)methyl)quinolin-2(1H)-one] was tested, and the EC50 was 10.2 nM.

In the case of `O=c1[nH]c2ccccc2cc1Cc1coc2ccccc12` [Example 136, 3-(benzofuran-3-ylmethyl)quinolin-2(1H)-one], the EC50 is reported as 0.5 nM.

For `CC(C)(O)CN1Cc2ccc(Cc3cc4ccccc4[nH]c3=O)cc2C1=O` [Example 94, 3-((2-(2-hydroxy-2-methylpropyl)-3-oxoisoindolin-5-yl)methyl)quinolin-2(1H)-one], the EC50 was 29.6 nM.
